# Laboratory results published in patent US12280026B2, “Use of repirinast in the prophylaxis or treatment of renal fibrosis or kidney disease” (ALGERNON PHARMACEUTICALS INC., priority 2018, dated 2025).
# Entries after “also recorded” stand apart in the source; their conditions may differ. Marks after values point to notes of the source that are not given here.
# Columns and labels:
# [1] = test system: C57BL/6 mice with UUO surgical ligation; assay: Example 1: UUO mice, renal function evaluation (plasma BUN, creatinine); type: in vivo; settings: Example 1; for Reduction in BUN compared to vehicle, significance in words: Bonferroni post-test, Suplatast Tosylate 60, Iguratimod 15, Lobenzarit 48, Actarit 60, Udenafil 40 mg/kg PO QD; for BUN in comparison to control groups, in words: UUO, male C57BL/6 mice, PO QD days 1-14, doses of Table 1
# Procedure: (§1) Male 9-12 week old C57BL/6 mice of 23-25 grams body weight were used. All mice were acclimated for a minimum of 5 days prior to the start of the study and housed individually in microisolators throughout the study in a 12:12 light-dark cycle on a standard maintenance mouse chow diet (Harlan Teklad 2018) with food and water given ad libitum. Prior to surgery, all mice were weighed for baseline body weight.
# (§2) The UUO surgical intervention was performed according to previously described methods known in the art (Le Meur Y et al., Macrophage accumulation at a site of renal inflammation is dependent on the M-CSF/c-fms pathway, J Leukocyte Biol., 72:530-537; 2002).
# (§3) All mice were first anesthetized by intraperitoneal injection with a rodent cocktail (ketamine 10 mg/mL and Xyaline 1 mg/mL) in normal saline (10 μL/g body weight). Pedal reflex and movement of the vibrissae were used to determine the state of unconsciousness. A state of unconsciousness was confirmed after a period of about 5 minutes in all animals. All mice were then shaved on the left side of the abdomen. The shaved area was first swabbed with iodine and then swabbed with alcohol. A vertical incision was made through the skin with a #22 scalpel and the skin was then retracted. A further incision of about 2.5 cm was then made through the peritoneum avoiding any major blood vessels. The peritoneum was then retracted and the left kidney was exposed.
# (§4) The left kidney was then brought to the surface by hooking the ureter directly beneath the kidney with sterile forceps and gently manipulating the kidney upward. The ureter was ligated at two points directly below the kidney with 5-0 surgical silk with excess suture cut away and discarded post-ligation. The kidney was then gently placed back to its correct anatomical position and the abdomen was lavaged with 1 mL sterile saline to replenish fluid loss. The peritoneum and then skin were sutured with 5-0 Mersilene, and the incision site was gently wiped with iodine. All mice were then placed individually in clean cages that were set on top of a thermal blanket until recovery at about 30-60 minutes later. In some examples, sham surgery was performed as a control by following all steps of the UUO surgical intervention procedure except ligation.
# (§5) Following surgery, the mice were divided into 14 individual study groups of 8 mice each and, following post-surgical recovery, administered a once-daily oral treatment for 14 days. The mice in 12 of the 14 study groups (hereafter known as “treatment groups”) had all received the UUO surgical ligation and were treated individually with a distinct pharmacologic compound as set out in Table 1. The mice in 2 of the 14 study groups were treated individually with a pharmaceutically acceptable vehicle with no active ingredient. The pharmaceutically acceptable vehicle in all groups was 0.5% carboxymethyl cellulose (CMC). All mice were sacrificed with CO2 on post-surgical day 15.
# (§6) The dose selected for the animal studies was determined by taking the maximum known human daily dose, dividing by the average weight of an adult (˜60-70 kg) to get a human mg/kg dose. Then that number was multiplied by 12 to convert to a mouse dose based on conventional dosing tables. See Nair and Jacob, J Basic Clin Pharm March 2016-May 2016, 7(2):27-31.
# (§7) Serum collection: A blood sample was then collected from all mice and plasma analyzed for urea nitrogen and creatinine. Plasma was stored at −80° C. for possible future analysis.
# (§8) Renal Function Evaluation: Renal function and disease progression was evaluated by BUN (blood urea nitrogen) as previously described. The BUN of each study group consisted of the BUN average of all mice in each study group.
# [2] = Example 2: UUO mice, mean body weight change following surgery; type: in vivo, C57BL/6 mice; settings: UUO, female C57BL/6 mice, PO QD days 1-14, mg/kg: Telmisartan 3, Bemithyl 200, Repirinast 30, Telmisartan+Bemithyl 3+200, Telmisartan+Repirinast 3+30, Cenicriviroc 40, Bromantane 40
# Procedure: (§9) In this example, healthy young female C57BL/6 mice were used for the study. At the commencement of the study, mice were between 9-12 weeks of age, weighing 23-25 g. All the mice were obtained from Charles River Laboratories.
# (§10) The mice were maintained in a controlled environment with a temp 70-72° F., humidity 30-70%, with a photo cycle of 12 hours of light and 12 hours of dark. They were provided with Harlan Teklad 2018 standard maintenance mouse chow diet and drinking water ad libitium.
# (§11) After five days of acclimatization, the mice were grouped according to their body weight. There were ten groups of ten mice each. Nine groups of ten mice each underwent UUO as described above and the other group of ten mice underwent a sham procedure to serve as a no-surgery control.
# (§12) Following surgery, the mice were divided into 10 individual study groups of 10 mice each and, following post-surgical recovery, administered a once-daily oral treatment for 14 days. The mice in 8 of the 10 study groups had all received the UUO surgical ligation and were treated individually with a distinct pharmacologic compound as set out in Table 6. The mice in 2 of the 10 study groups were treated individually with a pharmaceutically acceptable vehicle with no active ingredient. The pharmaceutically acceptable vehicle in all groups was 0.5% carboxymethyl cellulose (CMC). All mice were sacrificed with CO2 on post-surgical day 15.
# as §6, with “That” for “Then that”
# Body weight: The body weights were measured on days 1, 4, 7, 10 and 14 using a laboratory balance.
# Body weights were measured on post-surgical days 1, 4, 7, 10 and 14 as previously described. The mean body weight change of each study group was calculated using the body weight average of all mice in each study group.
# [3] = test system: C57BL/6 mice with UUO surgical ligation; assay: Example 2: UUO mice, kidney weight evaluation; type: in vivo; settings: group mean, UUO, female C57BL/6 mice, PO QD days 1-14, mg/kg: Telmisartan 3, Bemithyl 200, Repirinast 30, Telmisartan+Bemithyl 3+200, Telmisartan+Repirinast 3+30, Cenicriviroc 40, Bromantane 40
# Procedure: as §9, §10, §11, §12
# as §6, with “That” for “Then that”
# Kidney weight: The UUO was then examined in situ to ensure that the surgical ligation ties remained patent. Both the ligated (UUO) and non-ligated kidneys were removed for analysis. Weights of both kidneys were measured using a laboratory balance.
# (§13) The data are presented as the mean obtained from Microsoft Excel or GraphPad Prism version 5.00 for Windows (GraphPad Software, San Diego California USA). Data were analyzed using two-way ANOVA using Bonferroni and Tamhane post-tests. Differences between groups were considered significant at p<0.05.
# Kidney Weight Evaluation: Kidney weight, which indicates functional and pathological changes in the kidney, was evaluated by measuring the weight of both the ligated (UUO) and non-ligated kidneys as previously described. The ligated and non-ligated kidney weights of each study group consisted of the respective kidney weight averages of all mice in each study group.
# [4] = test system: C57BL/6 mice with UUO surgical ligation; assay: Example 2: UUO mice, renal function evaluation (plasma BUN, creatinine); type: in vivo
# Procedure: as §9, §10, §11, §12
# as §6, with “That” for “Then that”
# as §7, §13, §8
# [5] = test system: C57BL/6 mice with UUO surgical ligation; assay: Example 2: UUO mice, renal fibrosis evaluation (Sirius Red histology score); type: in vivo
# Procedure: as §9, §10, §11, §12
# as §6, with “That” for “Then that”
# (§14) Histopathology: Formalin-fixed kidney cross-section samples were subjected histopathological scoring with Sirius Red staining, and imaged at a magnification of ×20, using standard techniques. All three sections were stained and evaluated. The analysis was performed by a board-certified veterinarian pathologist. The presence of interstitial damage and severity score was assessed according to the following criteria: 0=normal; 1=light; 2=moderate; 3=severe.
# as §13
# Renal Fibrosis Evaluation: Renal fibrosis and interstitial damage was evaluated by histochemical staining of renal cross-sections with Sirius Red as previously described. The Histology Score of each study group consisted of the histology score average of all mice in each study group.
# [6] = test system: C57BL/6 mice with UUO surgical ligation; assay: Example 1: UUO mice, renal fibrosis evaluation (Sirius Red histology score); type: in vivo; settings: Bemithyl 200, Emoxypine 160, Suplatast Tosylate 60, Udenafil 40, Telmisartan 5 mg/kg PO QD
# Procedure: as §1, §2, §3, §4, §5
# The dose selected for the animal studies was determined by taking the maximum known human daily dose, dividing by the average weight of an adult (˜60-70 kg) to get a human mg/kg dose. […]
# as §14, with “The analysis was performed by a board-certified veterinarian pathologist.” left out, “0=normal, 1=light, 2=moderate,” for “0=normal; 1=light; 2=moderate;”, “3=severe. […]” for “3=severe.”
# [7] = Example 2, mg/kg PO QD: Telmisartan 3, Bemithyl 200, Repirinast 30, Telmisartan+Bemithyl 3+200, Telmisartan+Repirinast 3+30, Cenicriviroc 40, Bromantane 40
compound,measurement,setting,value
"CC(=O)Nc1ccc(CC(=O)O)cc1 [Actarit, (4-Acetamidophenyl)acetic acid]","Reduction in BUN compared to vehicle, significance in words",[1],significant reductions in BUN
same,"BUN in comparison to control groups, in words",[1],less renal dysfunction and disease progression than the positive control treatment; also recorded: decreased in comparison to the sham surgery control group
CCCCOCCOc1ccc(-c2ccc3c(c2)/C=C(/C(=O)Nc2ccc([S@@+]([O-])Cc4cncn4CCC)cc2)CCCN3CC(C)C)cc1 [Cenicriviroc],"Mean Body Weight Change Following Surgery, Day 1",[2]; Day 1,0 g
same,"Mean Body Weight Change Following Surgery, Day 4",[2]; Day 4,-0.30 g
same,"Mean Body Weight Change Following Surgery, Day 7",[2]; Day 7,-0.12 g
same,"Mean Body Weight Change Following Surgery, Day 10",[2]; Day 10,0.18 g
same,"Mean Body Weight Change Following Surgery, Day 14",[2]; Day 14,0.82 g
same,Drained Left Kidney,[3]; ligated kidney drained,0.1683 g
same,Excised Left Kidney,[3]; ligated kidney,0.4091 g
same,Right Kidney (g),[3]; unligated kidney,0.1342* g
same,"Level of BUN compared to vehicle or other agents, in words",[4]; [7],this reduction was not significant
same,BUN,"[4]; plasma at sacrifice day 15, group mean, * significant vs vehicle Bonferroni, # Tamhane (p<0.05), UUO, female C57BL/6 mice, PO QD days 1-14, mg/kg: Telmisartan 3, Bemithyl 200, Repirinast 30, Telmisartan+Bemithyl 3+200, Telmisartan+Repirinast 3+30, Cenicriviroc 40, Bromantane 40",19.9 mg/dL
same,Creatinine,"[4]; plasma at sacrifice day 15, group mean, UUO, female C57BL/6 mice, PO QD days 1-14, mg/kg: Telmisartan 3, Bemithyl 200, Repirinast 30, Telmisartan+Bemithyl 3+200, Telmisartan+Repirinast 3+30, Cenicriviroc 40, Bromantane 40",0.21 mg/dL
same,"Level of kidney fibrosis / histology score compared to vehicle or other agents, in words",[5]; [7],statistically insignificant improvements
same,Histology Score,"[5]; Sirius Red, 0=normal, 1=light, 2=moderate, 3=severe, group mean, UUO, female C57BL/6 mice, PO QD days 1-14, mg/kg: Telmisartan 3, Bemithyl 200, Repirinast 30, Telmisartan+Bemithyl 3+200, Telmisartan+Repirinast 3+30, Cenicriviroc 40, Bromantane 40",1.63*#
same,Reduction of fibrosis (%) (versus vehicle),"[5]; from histology score, UUO, female C57BL/6 mice, PO QD days 1-14, mg/kg: Telmisartan 3, Bemithyl 200, Repirinast 30, Telmisartan+Bemithyl 3+200, Telmisartan+Repirinast 3+30, Cenicriviroc 40, Bromantane 40",32%
"CCc1nc(C)ccc1O [Emoxypine, 2-Ethyl-6-methyl-3-hydroxypyridine]","Kidney fibrosis / Histology Score, significance and comparison in words",[6],the same as the positive control treatment group; also recorded: significant reductions in kidney fibrosis; also recorded: significant reduction in fibrosis compared to vehicle
same,"BUN in comparison to control groups, in words",[1],less renal dysfunction and disease progression than the positive control treatment
"CS(=O)(=O)Nc1cc2occ(NC=O)c(=O)c2cc1Oc1ccccc1 [Iguratimod, N-(7-(Methylsulfonamido)-4-oxo-6-phenoxy-4H-chromen-3-yl)formamide]","Reduction in BUN compared to vehicle, significance in words",[1],significant reductions in BUN
same,"BUN in comparison to control groups, in words",[1],less renal dysfunction and disease progression than the positive control treatment; also recorded: decreased in comparison to the sham surgery control group
"O=C(O)c1ccccc1Nc1cc(Cl)ccc1C(=O)O [Lobenzarit, 2-[(2-Carboxyphenyl)amino]-4-chlorobenzoic acid]","Reduction in BUN compared to vehicle, significance in words",[1],significant reductions in BUN
same,"BUN in comparison to control groups, in words",[1],less renal dysfunction and disease progression than the positive control treatment; also recorded: decreased in comparison to the sham surgery control group
CCCOc1ccc(S(=O)(=O)NCCC2CCCN2C)cc1-c1nc(=O)c2c([nH]1)c(CCC)nn2C (stereo not shown) [Udenafil],"Kidney fibrosis / Histology Score, significance and comparison in words",[6],significant reductions in kidney fibrosis; also recorded: significant reduction in fibrosis compared to vehicle
same,"Reduction in BUN compared to vehicle, significance in words",[1],significant reductions in BUN
same,"BUN in comparison to control groups, in words",[1],less renal dysfunction and disease progression than the positive control treatment; also recorded: decreased in comparison to the sham surgery control group
